{"source": "patent US8338410B2", "about": "“Neuroprotective compounds and pharmaceutical compositions comprising them” (Biocodex, priority 2005, dated 2012)", "key": {"[1]": {"test_system": "rats subjected to histotoxic hypoxia induced by potassium cyanide", "assay": "KCN (i.v.) hypoxia in rats (survival time)", "type": "in vivo, Wistar male rats", "settings": "for Percentage variation / Survival time in seconds (m ± sem): Table 5: rats, KCN 4 mg/kg i.p. (so in the source)"}, "[2]": {"test_system": "mixed cultures of rat cortical neurones and astrocytes", "assay": "Density of neuritic extensions marked by anti-neurofilament antibody, with or without excess glutamate", "type": "cell-based", "excerpt": "The principle of the investigation consisted of evaluating the survival of cortical neurones in co-culture with astrocytes after the application of a neurotoxic agent, excess glutamate.\nNeurone survival is quantified by the density of the system of neuritic extensions marked by an anti-neurofilament antibody in the absence or presence of glutamate.\n(§1) • Cell type: Initial culture of cortical neurones from 14 day rat embryos and initial culture of cortical astrocytes from newborn rats. • Culture medium: DMEM-Ham F12 (Invitrogen 21331020) • B27 2% (invitrogen 17504044) • L-glutamine 2 mM (Invitrogen 25030024) • Penicillin 50 UI/ml—Streptomycin 50 μg/ml (Invitrogen 15070063) • Nerve Growth Factor 10 ng/ml (NGF, Invitrogen 13290.010) • Survival medium: MEM (Invitrogen 21090022) • L-glutamine 2 mM (Invitrogen 25030024) • Penicillin 50 UI/ml—Streptomycin 50 μg/ml (Invitrogen 15070063) • Supplement N2 (Invitrogen 17502-048) 1.2 Prior Cytotoxicity • Platelets: 96 wells • Culture time: 8 days • Cells/well: cortical neurones+astrocytes • Product range: from 100 μM then ratio 3 • Replicates: 3 • Cell/product contact: 48 hours • Evaluation parameters: microscopic observation and MTT hydrolysis. • MTT: 3-(4,5-dimethylthiozol-2-yl)-2,5-diphenyltetrazolium bromide 1.3 Treatment and Analysis of the Network of Extensions Marked with Antineurofilament Antibody\nThe cortical neurones were obtained from the cortex of 14 day rat embryos cultured in platelet culture medium 96 and then in a stove at 37° C. and 5% CO2 with saturated humidity. After 2 days culture astrocytes obtained from newborn rat cortex were seeded in the wells (in a ratio of 1 astrocyte to 4 neurones). After 10 days culture the mature neurones synthesised neurofilaments (structural protein specific to mature neurones); in addition to this these neurones expressed functional receptors to glutamate on their surfaces and could therefore be intoxicated.\nOn the 12th day of culture the medium was replaced by survival medium with or without etifoxine in 3 concentrations and the neurones were or were not intoxicated with glutamate (Sigma G1501) at a strength of 2 mM and 10 mM. Each culture condition was applied to 4 wells. The cultures were incubated for 2 periods (6 and 24 hours).\nA positive control was carried out in the survival culture medium containing Nerve Growth Factor (NGF; 10 ng/ml) and basic Fibroblast Growth Factor (FGFb; 5 ng/ml) and the cells were intoxicated under the same conditions.\nAt the end of the two incubation periods (6 and 24 hours) the cell layers were fixed and marked with a anti-68- and 200 kD neurofilament monoclonal antibody (DAKO M0762) and then developed using a mouse anti-immunoglobulin goat antibody conjugate Alexia fluor 488 (Interchim A-11029). Controls without primary antibody were performed. All the controls were negative (no non-specific labelling). After extensive washing with PBS the preparations were observed under epi-fluorescence (Nikon Diaphot 300 microscope).\n2 images were obtained for each culture well (4 wells per experimental condition) using a Nikon DXM1200F camera controlled by LUCIA 6.0 software.\nAll the images were obtained under the same conditions and with identical camera settings.\nThe densities of the networks of extensions marked with anti-neurofilament antibody were examined using LUCIA 6.0 software. Initial image processing made it possible to increase the intensity of the specific marking on the extensions. Areas in which marking was positive were binarised and the percentage marking per image was determined (marked surface area/total surface area examined).\nThe results (mean values±standard error with respect to the mean (SEM) were expressed as percentage marking per microscope field (n=8 measurements/culture conditions). 2-factor analysis of variance (Etifoxine and glutamate), followed by the Student Newman-Keuls multiple comparisons test was used for statistical comparison of the results. […]"}, "[3]": {"test_system": "mixed cultures of rat cortical neurones and astrocytes", "assay": "Density of neuritic extensions marked by anti-neurofilament antibody, with or without excess glutamate", "type": "cell-based", "settings": "10 μM of glutamate (so in the source), 6 hours, compound 1, 3 and 10 μM"}, "[4]": {"test_system": "cortical neurones in the presence of astrocytes in culture", "assay": "Prior cytotoxicity, microscopic observation after 48 hours", "type": "cell-based", "settings": "100 μM, 48 hours incubation", "method": "as §1\nA first experiment was carried out (conventional test used to measure the level of cell survival) in order to investigate the cytotoxicity of etifoxine in relation to cortical neurones in the presence of astrocytes in culture and thus to determine the maximum non-toxic concentration of etifoxine."}, "[5]": {"test_system": "mice subjected to hypobaric hypoxia", "assay": "Hypobaric hypoxia in mice (survival time)", "type": "in vivo, NMRI male mice", "settings": "for Percentage variation / Survival time in seconds (m ± sem): Table 4: mice, hypobaric hypoxia 160 mmHg", "method": "1.1 Hypobaric Hypoxia in Mice\nNMRI male mice from Janvier weighing between 25 and 30 grams were used after acclimatisation in the animal house for at least 7 days (t°=22±2° C.; humidity 50±20%; feed UAR “A04” SAFE (Augy, France) and tap water ad libitum; 12 hour night and day cycle (light from 7 a.m. to 7 p.m.).\nThe unfasting […] were distributed at random into lots of 10.\nThe protocol of Nakaniski et al. (1973) Life Sciences, 13, 467-474 was adapted for the purposes of the model.\nEach mouse was placed in a dessicator (hermetically sealed enclosure) in which atmospheric pressure was reduced from 760 to 160 mmHg using a water pump. This pressure reduction was carried out in one minute and caused death of the control animals in approximately 1 minute.\nThe survival time of the animal, which corresponded to the difference between the time to death of the mouse assessed by respiratory arrest less the time required to induce the hypoxia was then noted.\nThe products under investigation were administered intraperitoneally (i.p.) (0.1 ml/10 g), 30 minutes before inducing hypobaric hypoxia, or orally (0.1 ml/10 g p.o.) 1 hour before hypoxia.\nEtifoxine hydrochloride was dissolved in 1% Tween 80. The potassium cyanide (Merck) was dissolved in 0.9% NaCl.\nThe statistical test used was a one-factor analysis of variance to determine the treated groups, which differed from the control group receiving the vehicle, at a threshold of 5%."}}}
{"compound": "CC1(c2ccccc2)OC(N)=Nc2ccc(Cl)cc21", "note": "(stereo not shown) [desethyl-etifoxine, 2-amino-6-chloro-4-methyl-4-phenyl-4H-[3,1]benzoxazine]", "values": [{"measurement": "Percentage variation", "setting": "[1]; compound i.p. dose 30", "result": "−4", "unit": "%"}, {"measurement": "Survival time in seconds (m ± sem)", "setting": "[1]; compound i.p. dose 30", "result": "55.0 ± 1.5", "unit": "s"}, {"measurement": "Percentage variation", "setting": "[1]; compound i.p. dose 50", "result": "−3", "unit": "%"}, {"measurement": "Survival time in seconds (m ± sem)", "setting": "[1]; compound i.p. dose 50", "result": "55.6 ± 1.5", "unit": "s"}, {"measurement": "Percentage variation", "setting": "[1]; compound i.p. dose 75", "result": "+27%"}, {"measurement": "Survival time in seconds (m ± sem)", "setting": "[1]; compound i.p. dose 75", "result": "72.7 ± 5.5", "unit": "s"}, {"measurement": "Percentage variation", "setting": "[1]; compound p.o. dose 50", "result": "+3%"}, {"measurement": "Survival time in seconds (m ± sem)", "setting": "[1]; compound p.o. dose 50", "result": "58.8 ± 1.9", "unit": "s"}, {"measurement": "Percentage variation", "setting": "[1]; compound p.o. dose 100", "result": "+42%"}, {"measurement": "Survival time in seconds (m ± sem)", "setting": "[1]; compound p.o. dose 100", "result": "81.3 ± 3.8", "unit": "s"}, {"measurement": "Percentage variation", "setting": "[1]; compound p.o. dose 200", "result": "+43%"}, {"measurement": "Survival time in seconds (m ± sem)", "setting": "[1]; compound p.o. dose 200", "result": "81.7 ± 4.1", "unit": "s"}, {"measurement": "survival time", "setting": "[1]; rats, KCN hypoxia, 75 mg/kg i.p.", "result": "increased survival time in a non-significant manner"}, {"measurement": "anti-hypoxic activity", "setting": "[1]; rats, KCN hypoxia, over 100 mg/kg p.o.", "result": "showed anti-hypoxic activity"}, {"measurement": "density of marked neurofilaments", "setting": "[2]; control culture medium (without glutamate), 6 hours, significant at 10 μM", "result": "increased the density of labelled neurofilaments in a statistically significant way"}, {"measurement": "density of neurofilaments in the presence of glutamate", "setting": "[2]; glutamate 2 mM, 6 hours, only 10 μM of compound", "result": "opposes the effect of glutamate"}, {"measurement": "density of marked neurofilaments in the presence of glutamate", "setting": "[3]", "result": "opposes the decrease in the density of marked neurofilaments"}, {"measurement": "astrocyte mortality, visual examination with a microscope", "setting": "[4]", "result": "astrocyte mortality was observed"}, {"measurement": "Percentage variation", "setting": "[5]; i.p. dose 30", "result": "+34%"}, {"measurement": "Survival time in seconds (m ± sem)", "setting": "[5]; i.p. dose 30", "result": "71.7 ± 4.8", "unit": "s"}, {"measurement": "Percentage variation", "setting": "[5]; i.p. dose 50", "result": "+32%"}, {"measurement": "Survival time in seconds (m ± sem)", "setting": "[5]; i.p. dose 50", "result": "70.7 ± 4.3", "unit": "s"}, {"measurement": "Percentage variation", "setting": "[5]; i.p. dose 75", "result": "+30%"}, {"measurement": "Survival time in seconds (m ± sem)", "setting": "[5]; i.p. dose 75", "result": "69.8 ± 2.7", "unit": "s"}, {"measurement": "Percentage variation", "setting": "[5]; p.o. dose 100", "result": "+45%"}, {"measurement": "Survival time in seconds (m ± sem)", "setting": "[5]; p.o. dose 100", "result": "61.0 ± 2.6", "unit": "s"}, {"measurement": "Percentage variation", "setting": "[5]; p.o. dose 200", "result": "+126%"}, {"measurement": "Survival time in seconds (m ± sem)", "setting": "[5]; p.o. dose 200", "result": "94.9 ± 9.9", "unit": "s"}, {"measurement": "Percentage variation", "setting": "[5]; p.o. dose 300", "result": "+126%"}, {"measurement": "Survival time in seconds (m ± sem)", "setting": "[5]; p.o. dose 300", "result": "94.8 ± 11.2", "unit": "s"}, {"measurement": "survival time", "setting": "[5]; mice, hypobaric hypoxia, oral administration from 200 mg/kg", "result": "significant increase in survival time"}, {"measurement": "anti-hypoxic activity", "setting": "[5]; mice, hypobaric hypoxia, over 30 mg/kg i.p.", "result": "showed anti-hypoxic activity"}]}
{"compound": "FGF: positive control: survival culture medium containing Nerve Growth Factor (NGF; 10 ng/ml) and basic Fibroblast Growth Factor (FGFb; 5 ng/ml)", "values": [{"measurement": "density of neurofilaments in the presence of glutamate", "setting": "[2]; positive control NGF 10 ng/ml + FGFb 5 ng/ml, glutamate 2 mM, 24 hours", "result": "opposed the effects of 2 mM of glutamate"}, {"measurement": "density of neurofilaments in the presence of glutamate", "setting": "[2]; positive control NGF 10 ng/ml + FGFb 5 ng/ml, glutamate 2 and 10 mM, 6 hours", "result": "opposed the decrease in density of neurofilaments induced by glutamate"}]}
